The text below walks through data of PubChem BioAssay (NCI).

SMILES strings stand for the structures. Where “and” joins values, the source holds several entries; their conditions need not be identical. Identical values can stand only once.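 Interpolation was linear, between the two tested concentrations surrounding the appropriate level; five concentrations were tested over 48 hours in 96-well plates. GI50: concentration for 50% inhibition of growth. TGI marks complete inhibition of growth.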

Among the test systems are SNB-75 CNS; SF-268 CNS; A498 renal; K-562 leukemia; DU-145 prostate; U251 CNS; SK-MEL-5 melanoma; HCT-15 colon; SK-MEL-28 melanoma; IGROV1 ovarian.
Holding throughout (experiment): NCI anticancer screen, dose series, 48 h

With `Cc1cc(C)c2c(c1)N(C)c1ncnc(-n3cnc4cc(C)ccc43)c1CC2C` (stereo not given), the GI50 in the assay on SNB-75 CNS is 2.8 µM; with SF-268 CNS it was 6.04 µM; in the assay on A498 renal it was 1.41 µM; in the assay on K-562 leukemia, 1.5 µM; in the assay with DU-145 prostate it was 4.44 µM; in the assay with U251 CNS, 3.55 µM. The GI50 is 2.24 µM in the assay on SK-MEL-5 melanoma, 3.58 µM with HCT-15 colon, 5.61 µM with SK-MEL-28 melanoma and 5.46 µM in the assay with IGROV1 ovarian. For the same compound, the TGI in the assay on SNB-75 CNS is 13.2 µM; in the assay on SF-268 CNS, more than 100 µM; with A498 renal, 6.21 µM; in the assay on K-562 leukemia, more than 100 µM; in the assay with DU-145 prostate, 63.7 µM; with U251 CNS it was 19.4 µM. Further, the TGI with SK-MEL-5 melanoma is 5.34 µM; in the assay with HCT-15 colon, 36.3 µM; in the assay on SK-MEL-28 melanoma it was 20.7 µM; in the assay on IGROV1 ovarian it was more than 100 µM.

Consider `CC(=O)N[C@@H](Cc1ccc(OP(=O)(O)O)cc1)C(=O)N[C@H]1CCC(=O)N2CCC[C@@H](C(=O)NC3CCc4ccccc43)N2C1=O` (stereo not given in full), for which the GI50 with SNB-75 CNS, with SF-268 CNS, in the assay with A498 renal, in the assay with K-562 leukemia, in the assay on DU-145 prostate and with U251 CNS was more than 25 µM throughout. The GI50 in the assay on SK-MEL-5 melanoma, in the assay on HCT-15 colon, in the assay with SK-MEL-28 melanoma and in the assay on IGROV1 ovarian was more than 25 µM in each case. Moreover, the TGI in the assay with SNB-75 CNS, in the assay on SF-268 CNS, with A498 renal, with K-562 leukemia, in the assay with DU-145 prostate and in the assay with U251 CNS was more than 25 µM each time. Moreover, the TGI in the assay with SK-MEL-5 melanoma, in the assay with HCT-15 colon, with SK-MEL-28 melanoma and in the assay with IGROV1 ovarian was more than 25 µM throughout.

For the compound `CCC(C)C1NC(=O)C(NC(=O)C(CC(C)C)N(C)C(=O)[C@@H]2CC(O)CN2C(=O)[C@H](C)O)C(C)OC(=O)[C@H](Cc2ccc(OC)cc2)N(C)C(=O)[C@@H]2CCCN2C(=O)[C@H](CC(C)C)NC(=O)C(C)C(=O)[C@H](C(C)C)OC(=O)CC1O` (stereo not given in full), the GI50 was 0.0338 µM with SNB-75 CNS; 0.0451 µM with SF-268 CNS; 0.325 µM in the assay with A498 renal; 0.025 µM in the assay on K-562 leukemia; 0.0884 µM in the assay with DU-145 prostate; less than 0.01 µM in the assay with U251 CNS. Also, the GI50 with SK-MEL-5 melanoma was less than 0.01 µM; in the assay with HCT-15 colon, 0.315 µM; in the assay with SK-MEL-28 melanoma, less than 0.01 µM; in the assay with IGROV1 ovarian, 0.0191 µM. The TGI in the assay with SNB-75 CNS was 1.25 µM and 0.614 µM; in the assay on SF-268 CNS, 1.7 µM and 1.04 µM; in the assay on A498 renal, 4.84 µM and 3.01 µM; in the assay with K-562 leukemia, 0.352 µM; in the assay with DU-145 prostate, 3.35 µM and 1.85 µM; in the assay with U251 CNS it was 1.63 µM and 0.677 µM. In addition, the TGI in the assay with SK-MEL-5 melanoma was 0.445 µM and 0.0574 µM; with HCT-15 colon, 12.7 µM; with SK-MEL-28 melanoma, 0.467 µM and 0.256 µM; in the assay with IGROV1 ovarian, 1.4 µM and 0.312 µM.

`O=C(NN1C(=O)CSC1c1c(Cl)cccc1Cl)C(O)c1ccccc1` (stereo not given): the GI50 is 32.4 µM in the assay with SNB-75 CNS; 60 µM with SF-268 CNS; more than 100 µM with A498 renal; 29.7 µM with K-562 leukemia; more than 100 µM with DU-145 prostate; 37.3 µM with U251 CNS. Also, the GI50 is 32.8 µM with SK-MEL-5 melanoma, 30.5 µM with HCT-15 colon, 63.7 µM with SK-MEL-28 melanoma and 40.8 µM with IGROV1 ovarian. In addition, the TGI in the assay on SNB-75 CNS is more than 100 µM; with SF-268 CNS, more than 100 µM; with A498 renal it was more than 100 µM; in the assay on K-562 leukemia, 76 µM; with DU-145 prostate, more than 100 µM; with U251 CNS, more than 100 µM. For the same compound, the TGI in the assay on SK-MEL-5 melanoma, with HCT-15 colon, in the assay on SK-MEL-28 melanoma and in the assay on IGROV1 ovarian was more than 100 µM throughout.

As for `COc1cc(C)[nH]c(=O)c1CNC(=O)c1c(C)n([C@H](C)C2CCN(CC(F)(F)F)CC2)c2ccccc12`, the GI50 was 36.1 µM in the assay on SNB-75 CNS; 80.6 µM in the assay on SF-268 CNS; 28.2 µM in the assay on A498 renal; 48.5 µM in the assay with K-562 leukemia; 57.8 µM in the assay with DU-145 prostate; 90.6 µM with U251 CNS. Moreover, the GI50 was 19 µM in the assay with SK-MEL-5 melanoma, 44 µM in the assay with HCT-15 colon, 60.8 µM with SK-MEL-28 melanoma and 49.2 µM with IGROV1 ovarian. Further, the TGI in the assay on SNB-75 CNS, with SF-268 CNS, in the assay on A498 renal, with K-562 leukemia, in the assay on DU-145 prostate and in the assay with U251 CNS was more than 100 µM each time. The TGI is 54.4 µM in the assay with SK-MEL-5 melanoma, more than 100 µM with HCT-15 colon, more than 100 µM with SK-MEL-28 melanoma and more than 100 µM with IGROV1 ovarian.

As for `O=C(CN1CCN(C(=O)c2ccco2)CC1)Nc1ccc(Cl)cc1C(=O)c1ccccc1Cl`, the GI50 in the assay on SNB-75 CNS was 2.73 µM; in the assay on SF-268 CNS it was 14.7 µM; in the assay on A498 renal it was 6.8 µM; with K-562 leukemia, 0.691 µM; with DU-145 prostate it was 15.5 µM; in the assay with U251 CNS, 8 µM. In addition, the GI50 with SK-MEL-5 melanoma was 5.34 µM; in the assay with HCT-15 colon it was 5.14 µM; in the assay with SK-MEL-28 melanoma it was 11.6 µM; with IGROV1 ovarian, 4.23 µM. For the same compound, the TGI was 28.3 µM with SNB-75 CNS; 43.1 µM in the assay with SF-268 CNS; 22.9 µM in the assay with A498 renal; 10.5 µM in the assay with K-562 leukemia; 35.2 µM in the assay with DU-145 prostate; 23.6 µM in the assay with U251 CNS. Besides, the TGI amounted to 18.6 µM with SK-MEL-5 melanoma, 39.7 µM in the assay with HCT-15 colon, 23.9 µM with SK-MEL-28 melanoma and 17.6 µM in the assay with IGROV1 ovarian.

With `O=C1c2ccc3c4c(ccc(c24)C(=O)N1CCNCc1ccccc1)C(=O)N(CCNCc1ccccc1)C3=O`, the GI50 is 3.19 µM in the assay on SNB-75 CNS; 2.76 µM with SF-268 CNS; 15.6 µM with A498 renal; 0.365 µM in the assay on K-562 leukemia; 2.76 µM in the assay on DU-145 prostate; 2.02 µM in the assay on U251 CNS. The GI50 in the assay with SK-MEL-5 melanoma is 1.39 µM; in the assay with HCT-15 colon it was 1.43 µM; with SK-MEL-28 melanoma, 2.59 µM; in the assay on IGROV1 ovarian, 1.72 µM. In addition, the TGI with SNB-75 CNS is 43.1 µM; with SF-268 CNS, 14.7 µM; in the assay with A498 renal, 37.8 µM; in the assay with K-562 leukemia, more than 100 µM; in the assay on DU-145 prostate, 11.4 µM; with U251 CNS, 5.42 µM. For the same compound, the TGI in the assay with SK-MEL-5 melanoma amounted to 2.68 µM; in the assay with HCT-15 colon, 2.92 µM; in the assay on SK-MEL-28 melanoma, 7.13 µM; in the assay with IGROV1 ovarian, 4.27 µM.
